How the values were obtained:
[1] = Tissue concentrations in rainbow trout after 7 d exposure via water (two mixtures); format: in vivo, Oncorhynchus mykiss; settings: rainbow trout (Oncorhynchus mykiss), in vivo
In short: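 Rainbow trout (98–165 g) held at 10 °C, pH 7.5, in flow-through aquaria and exposed 7 d to methanol-dissolved mixtures infused into inflow; intended water levels 2.5–50 μg L^–1. Skin rinsed with methanol; muscle, skin, liver, gills homogenized, methanol-extracted (50 °C, 60 min), isotope-labeled standards added, WCX SPE cleanup.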

[2] = test system: rainbow trout (Oncorhynchus mykiss); test: Contribution of tissues to fish body burden; format: in vivo; settings: for Contribution of Blood to the fish's body burden / Contribution of Gills to the fish's body burden / Contribution of Liver to the fish's body burden / Contribution of Mucus to the fish's body burden / Contribution of Other tissue (all apart from blood, liver, gills and skin; muscle concentration assumed) to body burden / Contribution of Skin to the fish's body burden: fraction
Source text: To calculate the quantity of the test chemical in the different tissues, the amount of each tissue in the fish was estimated and multiplied by the concentration in that tissue. The test chemical quantities in the different tissues were then summed to give the body burden in each fish. The total weight of the fish and the weight of the liver and gills were available from the dissection (Table S16). For skin and mucus, the estimated outer surface area of the fish was used. We note that the distinction between mucus and skin is an operational one determined by the extraction method; mucus can be viewed as a more readily extracted fraction of the test chemical residues at the fish surface. The volume of blood was taken as 0.0495 mL g^–1 fish.[30] The remaining tissue (difference between the weight of the whole fish and the weight of liver, gills, skin, and blood) was assumed to have the concentration measured in the muscle. The contribution of the different tissues to the body burden is given for each fish in Table S17, and the average contribution across all fish is plotted in Figure 1. All of the tissues, with the exception of blood, contribute at least 10% of the body burden for at least half of the test chemicals. There is no consistent negative correlation between the fraction of chemical associated with blood, muscle, and liver (tissues where the residue originates entirely from systemic uptake) and alkyl chain length (a measure of hydrophobicity). Thus, although adsorption to fish surfaces appears to play a significant role, its contribution to body burden cannot be simply predicted from surfactant hydrophobicity. In the following, we examine uptake in individual tissues.

[3] = Table S2; cited from earlier work
[4] = mean across fish, Figure 1, Q10, Q14 maximum estimates

CCCCCCCCCCCCN [P12, Dodecylamine]
concentration at 7 d ([1]; Concentration in skin): 4630 ng/g | concentration at 7 d ([1]; pH 7.5, Concentration in blood): 558 ng/g | concentration at 7 d ([1]; pH 7.5, Concentration in gills): 18500 ng/g | concentration at 7 d ([1]; pH 7.5, Concentration in liver): 35600 ng/g | concentration at 7 d ([1]; pH 7.5, Concentration in skin): 2720 ng/g | Contribution of Blood to the fish's body burden ([2]; Fish #1): 0.014 | Contribution of Gills to the fish's body burden ([2]; Fish #1): 0.34 | Contribution of Liver to the fish's body burden ([2]; Fish #1): 0.16 | Contribution of Mucus to the fish's body burden ([2]; Fish #1): 0.19 | Contribution of Other tissue (all apart from blood, liver, gills and skin; muscle concentration assumed) to body burden ([2]; Fish #1): 0.15 | Contribution of Skin to the fish's body burden ([2]; Fish #1): 0.14 | Contribution of Blood to the fish's body burden ([2]; Fish #2): 0.015 | Contribution of Gills to the fish's body burden ([2]; Fish #2): 0.24 | Contribution of Liver to the fish's body burden ([2]; Fish #2): 0.22 | Contribution of Mucus to the fish's body burden ([2]; Fish #2): 0.12 | Contribution of Other tissue (all apart from blood, liver, gills and skin; muscle concentration assumed) to body burden ([2]; Fish #2): 0.16 | Contribution of Skin to the fish's body burden ([2]; Fish #2): 0.25 | Contribution of Blood to the fish's body burden ([2]; Fish #3): 0.017 | Contribution of Liver to the fish's body burden ([2]; Fish #3): 0.20 | Contribution of Mucus to the fish's body burden ([2]; Fish #3): 0.11 | Contribution of Other tissue (all apart from blood, liver, gills and skin; muscle concentration assumed) to body burden ([2]; Fish #3): 0.16 | Contribution of Skin to the fish's body burden ([2]; Fish #3): 0.23 | Contribution of Blood to the fish's body burden ([2]; Fish #4): 0.011 | Contribution of Gills to the fish's body burden ([2]; Fish #4): 0.26 | Contribution of Liver to the fish's body burden ([2]; Fish #4): 0.24 | Contribution of Mucus to the fish's body burden ([2]; Fish #4): 0.14 | Contribution of Other tissue (all apart from blood, liver, gills and skin; muscle concentration assumed) to body burden ([2]; Fish #4): 0.16 | Contribution of Skin to the fish's body burden ([2]; Fish #4): 0.19 | Contribution of Blood to the fish's body burden ([2]; Fish #5): 0.010 | Contribution of Gills to the fish's body burden ([2]; Fish #5): 0.32 | Contribution of Liver to the fish's body burden ([2]; Fish #5): 0.12 | Contribution of Mucus to the fish's body burden ([2]; Fish #5): 0.17 | Contribution of Other tissue (all apart from blood, liver, gills and skin; muscle concentration assumed) to body burden ([2]; Fish #5): 0.20 | Contribution of Skin to the fish's body burden ([2]; Fish #5): 0.18 | Contribution of Blood to the fish's body burden ([2]; Fish #6): 0.018 | Contribution of Gills to the fish's body burden ([2]; Fish #6): 0.26 | Contribution of Liver to the fish's body burden ([2]; Fish #6): 0.16 | Contribution of Mucus to the fish's body burden ([2]; Fish #6): 0.18 | Contribution of Other tissue (all apart from blood, liver, gills and skin; muscle concentration assumed) to body burden ([2]; Fish #6): 0.12 | Contribution of Skin to the fish's body burden ([2]; Fish #6): 0.26 | Contribution of Blood to the fish's body burden ([2]; Mean): 0.014 | Contribution of Gills to the fish's body burden ([2]; Mean): 0.28 | Contribution of Liver to the fish's body burden ([2]; Mean): 0.19 | Contribution of Mucus to the fish's body burden ([2]; Mean): 0.15 | Contribution of Other tissue (all apart from blood, liver, gills and skin; muscle concentration assumed) to body burden ([2]; Mean): 0.16 | Contribution of Skin to the fish's body burden ([2]; Mean): 0.21 | % contribution to body burden, Gills ([2]; mean across fish, Figure 1): 28% | % contribution to body burden, Mucus ([2]; mean across fish, Figure 1): 15% | % contribution to body burden, Liver [2, 4]: 19% | % contribution to body burden, Skin [2, 4]: 21% | % contribution to body burden, Muscle ([2]; mean across fish, Figure 1, includes all tissues not specifically analyzed, Q10, Q14 maximum estimates): 16% | pKa [3]: 10.5
